The source of these data is patent US20090105270A1, “Kinase inhibition and anticancer therapy” (priority 2007, published 2009).

Structures are written as SMILES.

The target of one test is LOK(h) (Homo sapiens, UniProt O94804). Briefly: Upstate kinase activity inhibition assay LOK(h).
The target of another test is T1, PKBα(h) (Homo sapiens, UniProt P31749).
T1 construct: purchased Upstate (KinaseProfiler service)
Briefly: Upstate kinase activity inhibition assay PKBα(h). The following applies: 40 min; read-out: percentage of enzyme activity that remains. The class given is biochemical.

Another test concerns the target ErbB4(h) (Homo sapiens, UniProt Q15303). Put plainly: Upstate kinase activity inhibition assay ErbB4(h). The following applies: 40 min, read-out: percentage of enzyme activity that remains.

Chain of ErbB4(h) (Q15303 26-1308): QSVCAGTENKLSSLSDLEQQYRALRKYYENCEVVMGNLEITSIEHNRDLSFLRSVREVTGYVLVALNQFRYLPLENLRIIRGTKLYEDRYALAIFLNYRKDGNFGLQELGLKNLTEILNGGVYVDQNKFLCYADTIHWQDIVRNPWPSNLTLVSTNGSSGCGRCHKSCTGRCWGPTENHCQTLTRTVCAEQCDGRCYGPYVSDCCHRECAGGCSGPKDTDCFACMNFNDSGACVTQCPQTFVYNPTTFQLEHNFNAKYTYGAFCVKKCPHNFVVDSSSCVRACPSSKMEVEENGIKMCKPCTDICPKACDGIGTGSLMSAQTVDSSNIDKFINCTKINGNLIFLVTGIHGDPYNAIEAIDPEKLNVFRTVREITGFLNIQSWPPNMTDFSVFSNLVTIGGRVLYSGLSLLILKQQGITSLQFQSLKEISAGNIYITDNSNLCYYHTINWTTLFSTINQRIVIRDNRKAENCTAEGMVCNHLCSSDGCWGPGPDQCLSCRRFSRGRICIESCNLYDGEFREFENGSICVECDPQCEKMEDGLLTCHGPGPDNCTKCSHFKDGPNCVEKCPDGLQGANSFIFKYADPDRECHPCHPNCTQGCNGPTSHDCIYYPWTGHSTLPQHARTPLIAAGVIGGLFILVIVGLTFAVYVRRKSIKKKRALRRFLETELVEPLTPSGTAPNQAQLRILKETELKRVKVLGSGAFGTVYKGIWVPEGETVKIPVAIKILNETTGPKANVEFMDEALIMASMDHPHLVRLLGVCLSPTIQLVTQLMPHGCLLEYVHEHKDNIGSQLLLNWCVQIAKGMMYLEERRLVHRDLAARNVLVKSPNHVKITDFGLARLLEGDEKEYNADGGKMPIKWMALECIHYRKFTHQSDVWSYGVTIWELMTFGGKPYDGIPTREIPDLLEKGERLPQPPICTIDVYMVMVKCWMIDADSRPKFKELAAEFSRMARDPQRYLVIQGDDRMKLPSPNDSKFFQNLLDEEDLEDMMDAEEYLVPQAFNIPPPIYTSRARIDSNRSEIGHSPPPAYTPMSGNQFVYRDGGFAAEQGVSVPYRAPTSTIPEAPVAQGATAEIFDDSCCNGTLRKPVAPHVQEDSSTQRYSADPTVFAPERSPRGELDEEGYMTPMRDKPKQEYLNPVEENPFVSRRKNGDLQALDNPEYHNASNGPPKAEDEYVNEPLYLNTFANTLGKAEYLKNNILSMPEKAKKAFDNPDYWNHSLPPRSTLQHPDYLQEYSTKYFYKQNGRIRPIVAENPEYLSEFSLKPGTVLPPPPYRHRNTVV
T1 sequence (P31749 whole entry): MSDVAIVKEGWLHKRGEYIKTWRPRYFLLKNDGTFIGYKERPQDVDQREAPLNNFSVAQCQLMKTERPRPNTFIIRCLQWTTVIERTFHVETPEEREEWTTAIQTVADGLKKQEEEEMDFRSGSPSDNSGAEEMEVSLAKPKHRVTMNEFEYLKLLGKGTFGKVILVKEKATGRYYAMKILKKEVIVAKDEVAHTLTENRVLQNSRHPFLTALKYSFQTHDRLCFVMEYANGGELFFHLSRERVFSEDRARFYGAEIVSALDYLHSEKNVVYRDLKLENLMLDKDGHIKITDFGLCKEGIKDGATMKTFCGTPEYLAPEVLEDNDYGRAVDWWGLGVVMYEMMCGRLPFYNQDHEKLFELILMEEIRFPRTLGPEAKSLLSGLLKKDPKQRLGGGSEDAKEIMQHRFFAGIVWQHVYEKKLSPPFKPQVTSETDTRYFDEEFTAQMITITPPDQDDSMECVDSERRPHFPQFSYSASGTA
Chain of LOK(h) (O94804 whole entry): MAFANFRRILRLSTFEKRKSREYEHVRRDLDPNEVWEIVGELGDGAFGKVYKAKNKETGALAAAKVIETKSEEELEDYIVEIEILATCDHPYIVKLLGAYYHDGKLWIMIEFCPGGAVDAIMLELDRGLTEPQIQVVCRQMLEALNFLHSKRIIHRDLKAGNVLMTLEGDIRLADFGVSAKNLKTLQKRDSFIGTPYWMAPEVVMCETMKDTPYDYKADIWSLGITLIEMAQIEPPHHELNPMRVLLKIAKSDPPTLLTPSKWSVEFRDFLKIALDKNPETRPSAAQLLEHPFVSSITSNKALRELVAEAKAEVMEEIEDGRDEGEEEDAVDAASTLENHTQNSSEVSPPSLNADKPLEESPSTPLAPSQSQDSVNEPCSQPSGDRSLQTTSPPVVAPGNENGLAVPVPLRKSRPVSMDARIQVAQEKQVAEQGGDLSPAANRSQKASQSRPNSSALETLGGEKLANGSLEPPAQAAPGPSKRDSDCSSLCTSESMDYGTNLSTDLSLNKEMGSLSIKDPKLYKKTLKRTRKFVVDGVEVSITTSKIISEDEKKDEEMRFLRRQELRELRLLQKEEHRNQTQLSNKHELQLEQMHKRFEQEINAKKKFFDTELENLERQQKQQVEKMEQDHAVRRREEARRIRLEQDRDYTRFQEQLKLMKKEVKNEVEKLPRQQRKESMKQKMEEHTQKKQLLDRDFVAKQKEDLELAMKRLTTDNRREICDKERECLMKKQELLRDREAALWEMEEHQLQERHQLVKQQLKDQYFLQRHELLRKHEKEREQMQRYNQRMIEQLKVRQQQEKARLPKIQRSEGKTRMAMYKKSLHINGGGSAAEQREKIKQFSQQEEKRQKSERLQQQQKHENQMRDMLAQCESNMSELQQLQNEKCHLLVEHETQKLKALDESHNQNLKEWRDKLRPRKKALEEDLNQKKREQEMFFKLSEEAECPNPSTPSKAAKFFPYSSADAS

As for `Cc1cc(Nc2cc(N3CCN(C)CC3)nc(Sc3ccc(NC(=O)C4CC4)cc3)n2)n[nH]1` [Compound E, Cyclopropane carboxylic acid {4-[4-(4-methyl-piperazin-1-yl)-6-(5-methyl-2H-pyrazol-3-ylamino)-pyrimidin-2-ylsulphanyl]-phenyl}-amide], the “percentage of enzyme activity that remains” value on LOK(h) (0.2 μM Compound E) is 92%; at LOK(h) (4 μM Compound E) it was 37%. Besides, the remaining activity at 0.2 µM was 110% on PKBα(h) and 53% at ErbB4(h). The remaining activity at 4 µM at PKBα(h) amounted to 110%; on ErbB4(h), 52%.
